{
  "source": "patent EP0745595A1",
  "about": "“3-(3-Aryloxyphenyl)-1-(substituted methyl)-s-triazine-2,4,6-oxo or thiotrione herbicidal agents” (American Cyanamid Company, priority 1995, dated 1996)",
  "format_in_all_cases": "in vivo",
  "key": {"[1]": {"tested_on": "AMBROSIA ARTEMISIIFOLIA, L.", "experiment": "Preemergence herbicidal evaluation, AMBEL (Ragweed, Common)", "details": "for AMBEL herbicidal rating: rated four to five weeks after treatment", "method_in_brief": "(§1)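 First, seeds in potting soil are sown atop soil in cups. Next, the surface is sprayed with test compound in aqueous acetone at roughly 0.125 to 0.50 kg per hectare. After four to five weeks of greenhouse care, each cup is scored 0-9 against a control.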"}, "[2]": {"tested_on": "ABUTILON THEOPHRASTI, MEDIC.", "experiment": "Preemergence herbicidal evaluation, ABUTH (Velvetleaf)", "details": "for ABUTH herbicidal rating: rated four to five weeks after treatment", "method_in_brief": "as §1"}, "[3]": {"tested_on": "ECHINOCHLOA CRUS-GALLI, (L) BEAU", "experiment": "Preemergence herbicidal evaluation, ECHCG (Barnyardgrass)", "details": "for ECHCG herbicidal rating: rated four to five weeks after treatment", "method_in_brief": "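Barnyardgrass seeds were mixed with potting soil and planted on about one inch of soil in pint cups for preemergence testing. Treated cups were kept on greenhouse benches, watered and maintained by standard greenhouse practice. After four to five weeks, each cup was visually rated on a 0-9 scale against an untreated control.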"}, "IPOMOEA SPP.": {"tested_on": "IPOMOEA SPP.", "experiment": "Preemergence herbicidal evaluation, IPOSS (Morningglory spp.)", "details": "for IPOSS herbicidal rating: rated four to five weeks after treatment", "method_in_brief": "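Seeds of morningglory (Ipomoea spp.) were mixed with potting soil and sown on roughly one inch of soil in pint cups for a preemergence herbicide test. The cups were put on greenhouse benches, watered, and maintained by standard greenhouse practice. Four to five weeks after treatment each cup was scored visually on a 0-9 scale against a control.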"}, "[4]": {"tested_on": "TRITICUM AESTIVUM, CV. APOLLO", "experiment": "Preemergence herbicidal evaluation, TRZAWO (Wheat, Winter, CV. APOLLO)", "details": "for TRZAWO herbicidal rating: rated four to five weeks after treatment", "method_in_brief": "as §1"}, "[5]": {"tested_on": "SETARIA VIRIDIS, (L) BEAU", "experiment": "Preemergence herbicidal evaluation, SETVI (Foxtail, Green)", "details": "for SETVI herbicidal rating: rated four to five weeks after treatment", "method_in_brief": "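Seeds of green foxtail (Setaria viridis) were mixed with potting soil and sown on top of roughly one inch of soil in pint cups for a preemergence herbicide test. Treated cups were kept on greenhouse benches, watered, and cared for conventionally. Four to five weeks after treatment, plants were rated visually on a 0-9 scale against a control.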"}},
  "data": [
    {"compound": "COC(=O)Cn1c(=O)n(C)c(=O)n(-c2cc(Oc3ccc(SC)cc3Cl)ccc2[N+](=O)[O-])c1=O", "note": "[Compound 34, Methyl 3-{5-[2-chloro-4-(methylthio)-phenoxy]-2-nitrophenyl}tetrahydro-5-methyl-2,4,6-trioxo-s-triazine-1(2H)-acetate]", "values": [
      {"measurement": "AMBEL herbicidal rating", "setting": "[1]; Rate 0.125 kg/ha", "result": 0.0},
      {"measurement": "AMBEL herbicidal rating", "setting": "[1]; Rate 0.250 kg/ha", "result": 0.0},
      {"measurement": "AMBEL herbicidal rating", "setting": "[1]; Rate 0.500 kg/ha", "result": 0.0},
      {"measurement": "ABUTH herbicidal rating", "setting": "[2]; Rate 0.125 kg/ha", "result": 0.0},
      {"measurement": "ABUTH herbicidal rating", "setting": "[2]; Rate 0.250 kg/ha", "result": 0.0},
      {"measurement": "ABUTH herbicidal rating", "setting": "[2]; Rate 0.500 kg/ha", "result": 0.0},
      {"measurement": "ECHCG herbicidal rating", "setting": "[3]; Rate 0.125 kg/ha", "result": 0.0},
      {"measurement": "ECHCG herbicidal rating", "setting": "[3]; Rate 0.250 kg/ha", "result": 0.0},
      {"measurement": "ECHCG herbicidal rating", "setting": "[3]; Rate 0.500 kg/ha", "result": 0.0},
      {"measurement": "IPOSS herbicidal rating", "setting": "IPOMOEA SPP.; Rate 0.125 kg/ha", "result": 0.0},
      {"measurement": "IPOSS herbicidal rating", "setting": "IPOMOEA SPP.; Rate 0.250 kg/ha", "result": 0.0},
      {"measurement": "IPOSS herbicidal rating", "setting": "IPOMOEA SPP.; Rate 0.500 kg/ha", "result": 0.0},
      {"measurement": "TRZAWO herbicidal rating", "setting": "[4]; Rate 0.125 kg/ha", "result": 0.0},
      {"measurement": "TRZAWO herbicidal rating", "setting": "[4]; Rate 0.250 kg/ha", "result": 0.0},
      {"measurement": "TRZAWO herbicidal rating", "setting": "[4]; Rate 0.500 kg/ha", "result": 0.0},
      {"measurement": "SETVI herbicidal rating", "setting": "[5]; Rate 0.125 kg/ha", "result": 0.0},
      {"measurement": "SETVI herbicidal rating", "setting": "[5]; Rate 0.250 kg/ha", "result": 0.0},
      {"measurement": "SETVI herbicidal rating", "setting": "[5]; Rate 0.500 kg/ha", "result": 0.0}
    ]},
    {"compound": "COC(=O)Cn1c(=O)n(C)c(=O)n(-c2cc(Oc3cc(Cl)cc(Cl)c3)ccc2[N+](=O)[O-])c1=O", "note": "[Compound 35, Methyl 3-[5-(3,5-dichlorophenoxy)-2-nitrophenyl]tetrahydro-5-methyl-2,4,6-trioxo-s-triazine-1(2H)-acetate]", "values": [
      {"measurement": "AMBEL herbicidal rating", "setting": "[1]; Rate 0.500 kg/ha", "result": 0.0},
      {"measurement": "ABUTH herbicidal rating", "setting": "[2]; Rate 0.500 kg/ha", "result": 0.0},
      {"measurement": "ECHCG herbicidal rating", "setting": "[3]; Rate 0.500 kg/ha", "result": 0.0},
      {"measurement": "IPOSS herbicidal rating", "setting": "IPOMOEA SPP.; Rate 0.500 kg/ha", "result": 0.0},
      {"measurement": "TRZAWO herbicidal rating", "setting": "[4]; Rate 0.500 kg/ha", "result": 0.0},
      {"measurement": "SETVI herbicidal rating", "setting": "[5]; Rate 0.500 kg/ha", "result": 0.0}
    ]},
    {"compound": "COC(=O)Cn1c(=O)n(C)c(=O)n(-c2cc(Oc3ccccn3)ccc2[N+](=O)[O-])c1=O", "note": "[Compound 38, Methyl tetrahydro-3-methyl-5-[2-nitro-5-(2-pyridyloxy)phenyl]-2,4,6-trioxo-s-triazine-1(2H)-acetate]", "values": [
      {"measurement": "AMBEL herbicidal rating", "setting": "[1]; Rate 0.500 kg/ha", "result": 0.0},
      {"measurement": "ABUTH herbicidal rating", "setting": "[2]; Rate 0.500 kg/ha", "result": 0.0},
      {"measurement": "ECHCG herbicidal rating", "setting": "[3]; Rate 0.500 kg/ha", "result": 0.0},
      {"measurement": "IPOSS herbicidal rating", "setting": "IPOMOEA SPP.; Rate 0.500 kg/ha", "result": 0.0},
      {"measurement": "TRZAWO herbicidal rating", "setting": "[4]; Rate 0.500 kg/ha", "result": 1.0},
      {"measurement": "SETVI herbicidal rating", "setting": "[5]; Rate 0.500 kg/ha", "result": 0.0}
    ]},
    {"compound": "Methyl 3-{2-[(2-chloro-α,α,α,-trifluoro-p-tolyl)oxy]phenyl}tetrahydro-5-methyl-2,4,6-trioxo-s-triazine-1(2H)-acetate [Compound 28]", "values": [
      {"measurement": "AMBEL", "setting": "[1]; Rate 0.125 kg/ha", "result": 5.0},
      {"measurement": "AMBEL herbicidal rating", "setting": "[1]; Rate 0.125 kg/ha", "result": 5.0},
      {"measurement": "AMBEL", "setting": "[1]; Rate 0.250 kg/ha", "result": 5.0},
      {"measurement": "AMBEL herbicidal rating", "setting": "[1]; Rate 0.250 kg/ha", "result": 5.0},
      {"measurement": "AMBEL", "setting": "[1]; Rate 0.500 kg/ha", "result": 7.0},
      {"measurement": "AMBEL herbicidal rating", "setting": "[1]; Rate 0.500 kg/ha", "result": 7.0},
      {"measurement": "AMBEL", "setting": "[1]; Rate 1.000 kg/ha", "result": 5.0},
      {"measurement": "ABUTH", "setting": "[2]; Rate 0.125 kg/ha", "result": 0.0},
      {"measurement": "ABUTH herbicidal rating", "setting": "[2]; Rate 0.125 kg/ha", "result": 0.0},
      {"measurement": "ABUTH", "setting": "[2]; Rate 0.250 kg/ha", "result": 3.0},
      {"measurement": "ABUTH herbicidal rating", "setting": "[2]; Rate 0.250 kg/ha", "result": 3.0},
      {"measurement": "ABUTH", "setting": "[2]; Rate 0.500 kg/ha", "result": 4.0},
      {"measurement": "ABUTH herbicidal rating", "setting": "[2]; Rate 0.500 kg/ha", "result": 4.0},
      {"measurement": "ABUTH", "setting": "[2]; Rate 1.000 kg/ha", "result": 7.0},
      {"measurement": "ECHCG", "setting": "[3]; Rate 0.125 kg/ha", "result": 0.0},
      {"measurement": "ECHCG herbicidal rating", "setting": "[3]; Rate 0.125 kg/ha", "result": 0.0},
      {"measurement": "ECHCG", "setting": "[3]; Rate 0.250 kg/ha", "result": 2.0},
      {"measurement": "ECHCG herbicidal rating", "setting": "[3]; Rate 0.250 kg/ha", "result": 2.0},
      {"measurement": "ECHCG", "setting": "[3]; Rate 0.500 kg/ha", "result": 3.0},
      {"measurement": "ECHCG herbicidal rating", "setting": "[3]; Rate 0.500 kg/ha", "result": 3.0},
      {"measurement": "ECHCG", "setting": "[3]; Rate 1.000 kg/ha", "result": 6.0},
      {"measurement": "IPOSS", "setting": "IPOMOEA SPP.; Rate 0.125 kg/ha", "result": 2.0},
      {"measurement": "IPOSS herbicidal rating", "setting": "IPOMOEA SPP.; Rate 0.125 kg/ha", "result": 2.0},
      {"measurement": "IPOSS", "setting": "IPOMOEA SPP.; Rate 0.250 kg/ha", "result": 3.0},
      {"measurement": "IPOSS herbicidal rating", "setting": "IPOMOEA SPP.; Rate 0.250 kg/ha", "result": 3.0},
      {"measurement": "IPOSS", "setting": "IPOMOEA SPP.; Rate 0.500 kg/ha", "result": 6.0},
      {"measurement": "IPOSS herbicidal rating", "setting": "IPOMOEA SPP.; Rate 0.500 kg/ha", "result": 6.0},
      {"measurement": "IPOSS", "setting": "IPOMOEA SPP.; Rate 1.000 kg/ha", "result": 7.0},
      {"measurement": "TRZAWO", "setting": "[4]; Rate 0.125 kg/ha", "result": 0.0},
      {"measurement": "TRZAWO herbicidal rating", "setting": "[4]; Rate 0.125 kg/ha", "result": 0.0},
      {"measurement": "TRZAWO", "setting": "[4]; Rate 0.250 kg/ha", "result": 0.0},
      {"measurement": "TRZAWO herbicidal rating", "setting": "[4]; Rate 0.250 kg/ha", "result": 0.0},
      {"measurement": "TRZAWO", "setting": "[4]; Rate 0.500 kg/ha", "result": 1.0},
      {"measurement": "TRZAWO herbicidal rating", "setting": "[4]; Rate 0.500 kg/ha", "result": 1.0},
      {"measurement": "TRZAWO", "setting": "[4]; Rate 1.000 kg/ha", "result": 1.0},
      {"measurement": "SETVI", "setting": "[5]; Rate 0.125 kg/ha", "result": 0.0},
      {"measurement": "SETVI herbicidal rating", "setting": "[5]; Rate 0.125 kg/ha", "result": 0.0},
      {"measurement": "SETVI", "setting": "[5]; Rate 0.250 kg/ha", "result": 2.0},
      {"measurement": "SETVI herbicidal rating", "setting": "[5]; Rate 0.250 kg/ha", "result": 2.0},
      {"measurement": "SETVI", "setting": "[5]; Rate 0.500 kg/ha", "result": 3.0},
      {"measurement": "SETVI herbicidal rating", "setting": "[5]; Rate 0.500 kg/ha", "result": 3.0},
      {"measurement": "SETVI", "setting": "[5]; Rate 1.000 kg/ha", "result": 6.0}
    ]}
  ]
}
